In ChEMBL document CHEMBL1159276, “Sinugibberol, a new cytotoxic cembranoid diterpene from the soft coral Sinularia gibberosa” (1995):
Converted amounts (≈) assume the structure as drawn.

Assays:
[1] = test system: P388; assay: Cytotoxicity against mouse P388 cells by MTT method; format: functional; details: read-out: ED50 (the source's name)
[2] = test system: HT-29; assay: Cytotoxicity against human HT-29 cells after 6 days by MTT method; format: functional; details: HT-29, 144 h, read-out: ED50 (the source's name)

## C/C1=C\CC[C@@]2(C)O[C@@H]2/C=C(/C(C)(C)O)CC[C@@]2(C)O[C@@H]2CC1 [SINUGIBBEROL]
[1]
  EC50: 11.7 µg/mL (≈ 36.5 µM)
[2]
  EC50: 0.5 µg/mL (≈ 1.56 µM)
